In one experiment the test system is HDAC4, 5, 6, 7, and 8. The following applies: cited from earlier work.
The test system of the next experiment is Arg2. Put plainly: Arg2 protein expression in HAECs (Western blot). In kind it is cell-based, human. How it is done:
After 48 hrs of HAEC cells transfection, cells were lysed in ice cold RIPA lysis buffer consisting of 20 mM Tris-HCl at pH 7.5, 150 mM NaCl, 1 mM EDTA, 1 mM EGTA, 1% NP40, 1% sodium deoxycholate, 1 mM Na3VO4, 2.5 mM sodium pyrophosphate, 1 mM 3-glycerophosphate, 1 μg/mL leupeptin, and a 1:1000 diluted protease inhibitor cocktail (Sigma). For immunoprecipitation studies, whole cell lysate lysates were centrifuged at 14,000×g and supernatants were precleared by incubation with Protein A/G-agarose beads for 2 h at 4° C. with rocking. Agarose beads were then pelleted by centrifugation at 1,000×g. FLAG-Arg2 in precleared lysates were immunoprecipitated by incubation overnight at 4° C. with rocking following addition of anti-FLAG antibody (10 μl). Immune complexes were eluted in 2×SDS sample buffer by boiling for 5 minutes before loading into SDS-PAGE. Western blotting analysis was performed by transferring the SDS gel onto a PVDF membrane and visualized using secondary antibodies conjugated to alkaline phosphatases.
Background: In western blotting, separated proteins are transferred to a membrane and probed.

The test system of experiment [1] is aortic rings of wild-type mice. Put plainly: Force tension (wire) myography, vascular relaxation of isolated wild-type mouse aortic rings. The experiment is classed as cell-based. On the set-up: Emax: dose or concentration left out as unconfirmed. On the procedure: (§1) Mouse aorta was isolated and cleaned in ice-cold Krebs-Ringer-bicarbonate solution containing the following (in mM): 118.3 NaCl, 4.7 KCl, 1.6 CaCl2, 1.2 KH2 PO4, 25 NaHCO3, 1.2 MgSO4, and 11.1 dextrose. The aorta was immersed in a bath filled with constantly oxygenated Krebs buffer at 37° C. Equal size thoracic aortic rings (2 mm) were mounted using a microscope, ensuring no damage to the smooth muscle or endothelium. One end of the aortic rings was connected to a transducer, and the other to a micromanipulator. Aorta was passively stretched to an optimal resting tension using the micromanipulator, after which a dose of 60 mM KCl was administered, and repeated after a wash with Krebs buffer. After these washes, all vessels were allowed to equilibrate for 20-30 min in the presence of indomethacin (3 μM). Phenylephrine (1 μM) was administered to induce vasoconstriction. A dosedependent response (1 nM to 10 μM), with the muscarinic agonist, ACH or nitric oxide donor, SNP, was then performed as necessary. The responses were repeated in the presence of inhibitors. Relaxation responses were calculated as a percentage of tension following pre-constriction. Sigmoidal dose-response curves were fitted to data with the minimum constrained to 0. Two to four rings were isolated from each animal and the number of animals in each group (n) was 6.

In experiment [2] the test system is aortic rings from Arg2−/− mice. In words: Force tension (wire) myography, vascular relaxation of aortic rings from Arg2-/- mice. The experiment is classed as cell-based, mouse. The following applies: Mus musculus, 18 h; read-out: Emax endothelium-dependent relaxation. On the procedure: as §1
The next experiment deals with HDAC1A. The following applies: cited from earlier work.

These results are taken from patent US20160199463A1, “HDAC2 DEFENDS VASCULAR ENDOTHELIUM FROM INJURY” (The Johns Hopkins University, priority 2014, published 2016).

“Also recorded” adds a separate entry of the source. Like-named read-outs stand apart in the source and are kept apart here.

A word on the Emax: it is the size of the effect at its maximum, as opposed to the concentration needed. Usually IC50 stands for the concentration that inhibits the measured activity by half.

As to `Nc1ccccc1NC(=O)c1ccc(CNc2nccc(-c3cccnc3)n2)cc1` [MGCD0103, Mocetinostat], the “activity to HDAC4, 5, 6, 7, and 8” value in the experiment with HDAC4, 5, 6, 7, and 8 was “selectivity against HDAC2, 3, and 11, and no”. Moreover, in the experiment on Arg2, the “endothelial Arg2 expression, class-specific HDAC inhibitors” value is listed as “upregulate”. In addition, in experiment [1] (MGCD0103, MLN4924 or both, FIG. 29B), the “endothelium-independent responses to SNP, dose-dependent vasorelaxation” value was “no significant differences”. Moreover, the “Ach response in WT aorta” value in experiment [1] (MGCD0103 preincubation 48 hours) was “significant attenuation”. Besides, in experiment [1] (Mus musculus, 18 h, read-out: Emax endothelial-dependent vascular relaxation (acetylcholine)), the Emax amounted to 42.7 ± 8.5%. For the same molecule, the “SNP-mediated (endothelium-independent) vasorelaxation versus vehicle-only control” value in experiment [1] (TSA 200 nmol/L or MGCD0103 1 μmol/L, 18 hours) was “no significant difference; also recorded: unaffected”. In experiment [2], the Emax at 1 µM amounted to 62.4 ± 16.5%.
Regarding `Cn1c(/C=C/C(=O)NO)ccc1/C=C/C(=O)c1cccc(F)c1` [MC1658], in the experiment on HDAC1A, the IC50 was 100 nM. The “endothelial Arg2 expression, class-specific HDAC inhibitors” value in the experiment on Arg2 (MS275 2 μmol/L, CI994 1 μmol/L, MC1568 0.5 μmol/L, PC34051 100 nmol/L, MGCD0103 1 μmol/L) is reported as “no substantial effects”.
